System: Hepatoma AH 130
Assay: in vivo
Parameters: species or system SPF Wistar rats
Settings: additional compounds, result in words
Excerpt: The high activity against tumours is further illustrated in these experiments by comparisons with known antitumour agents used in the therapy. The therapeutic indexes (T.I.), i.e. the ratios LD50/ED50, are in all comparisons much more favourable with the compounds of the present invention.
LD50 is the dose that caused a 50 percent lethality of the animals, ED50 is the dose that caused a 50 percent reduction of tumour size.
The experimental design and the interpretation of the results have been in accordance with the standards set by the CCNSC (Cancer Chemotherapy Reports, January 1959 and December 1962), and by the DR&D (Cancer Chemotherapy Reports, September 1972, Vol. 3, No. 2).
The way of administration is by the intraperitoneal route (i.p.) in each case.
Experimental animals: SPF Wistar rats.
Tumour implant: 5 × 10^6 tumour cells i.p.
Therapy: One injection i.p. on the day following implantation.
Termination: The animals are killed on the 8th day.
Evaluation: Weights of tumours of test animals compared with those of control animals.

Structure (SMILES) | anti-tumor activity
C[C@]12CC[C@H]3[C@@H](CC=C4C[C@@H](OC(=O)N(CCCl)N=O)CC[C@@]43C)[C@@H]1CC[C@@H]2OC(=O)c1ccccc1 [androstenediol-17β-benzoate-3β-N-(2-chloroethyl)-N-nitroso carbamate] | exhibit anti-tumor activity
C#C[C@]1(OC(=O)N(CCCl)N=O)CC[C@H]2[C@@H]3CCC4=C[C@@H](OP(=O)(O)O)CC[C@@H]4[C@H]3CC[C@@]21C [ethynodiol-17β-N-(2-chloroethyl)-N-nitroso carbamate-3β-dihydrogen phosphate] | exhibit anti-tumor activity
CC(=O)[C@H]1CC[C@H]2[C@@H]3CC=C4C[C@@H](OC(=O)N(CCCl)C(=O)N(CCCl)N=O)CC[C@]4(C)[C@H]3CC[C@]12C [pregnenolone-3β-/N^2,N^4-bis (2-chloroethyl)-N^4-nitroso allophanate/] | exhibit anti-tumor activity
C#C[C@]1(OC(C)=O)CC[C@H]2[C@@H]3CCC4=C[C@@H](OC(=O)N(C(=O)N(CCCl)N=O)c5ccccc5)CC[C@@H]4[C@H]3CC[C@@]21C [ethynodiol-17β-acetate-3β-/N^2-phenyl-N^4-(2-chloroethyl)-N-nitroso allophanate/] | exhibit anti-tumor activity
CC(=O)[C@H]1CC[C@H]2[C@@H]3CC=C4C[C@@H](OC(=O)N(C)C(=O)N(CCCl)N=O)CC[C@]4(C)[C@H]3CC[C@]12C [pregnenolone-3β-/N^2-methyl-N^4-(2-chloroethyl)-N^4-nitroso allophanate/] | exhibit anti-tumor activity
CC(=O)[C@@]1(O)CC[C@H]2[C@@H]3C=C(Cl)C4=C[C@@H](OC(=O)N(CCCl)N=O)CC[C@]4(C)[C@H]3CC[C@@]21C [6-chloro-pregna-4,6-diene-3β,17α-diol-20-one,3β-N-(2-chloroethyl)-N-nitroso carbamate] | exhibit anti-tumor activity
CC(=O)[C@H]1CC[C@H]2[C@@H]3CC=C4C[C@@H](OC(=O)N(C(=O)N(CCCl)N=O)c5ccccc5)CC[C@]4(C)[C@H]3CC[C@]12C [pregnenolone-3β-/N^2-phenyl-N^4-(2-chloroethyl)-N^4-nitroso allophanate/] | exhibit anti-tumor activity
CC(C)CCC[C@@H](C)[C@H]1CC[C@H]2[C@@H]3CC=C4C[C@@H](OC(=O)N(C)C(=O)N(CCCl)N=O)CC[C@]4(C)[C@H]3CC[C@]12C [cholesterol-3β-/N^2-methyl-N^4-(2-chloroethyl)-N^4-nitroso allophanate/] | exhibit anti-tumor activity
C#C[C@]1(OC(=O)N(CCCl)N=O)CC[C@H]2[C@@H]3CCC4=C[C@@H](OC(=O)CCCCCC)CC[C@@H]4[C@H]3CC[C@@]21C [ethynodiol-17β-N-(2-chloroethyl)-N-nitroso carbamate-3β-oenanthate] | exhibit anti-tumor activity
CC(C)CCC[C@@H](C)[C@H]1CC[C@H]2[C@@H]3CC=C4C[C@@H](OC(=O)NC(=O)N(CCCl)N=O)CC[C@]4(C)[C@H]3CC[C@]12C [cholesterol-3β-/N^4-(2-chloroethyl)-N^4-nitroso allophanate/] | exhibit anti-tumor activity
CO[C@H]1CC[C@H]2[C@@H]3CC=C4C[C@@H](OC(=O)N(CCCl)N=O)CC[C@]4(C)[C@H]3CC[C@]12C [androstenediol-17β-methylether-3β-N-(2-chloroethyl)-N-nitroso carbamate] | exhibit anti-tumor activity
C[C@]12C=CC(=O)C=C1CC[C@@H]1[C@@H]2[C@@H](OC(=O)N(CCCl)N=O)C[C@@]2(C)[C@H]1CC[C@]2(O)C(=O)COP(=O)(O)O [prednisolone-11β-/N-(2-chloroethyl)-N-nitroso carbamate/-21-dihydrogenphosphate] | exhibit anti-tumor activity
CCOP(=O)(O)O[C@H]1CC[C@H]2[C@@H]3CC=C4C[C@@H](OC(=O)N(CCCl)N=O)CC[C@]4(C)[C@H]3CC[C@]12C [androstenediol-3β-/N-(2-chloroethyl)-N-nitroso carbamate/-17β-ethyl hydrogen phosphate] | exhibit anti-tumor activity
C#C[C@]1(OC(C)=O)CC[C@H]2[C@@H]3CCC4=C[C@@H](OC(=O)N(C(=O)N(CCCl)N=O)C5CCC(C)CC5)CC[C@@H]4[C@H]3CC[C@@]21C (stereo partly drawn) [ethynodiol-17β-acetate-3β-/N^2-(4-methylcyclohexyl)-N^4-(2-chloroethyl)-N^4-nitroso allophanate/] | exhibit anti-tumor activity
C[C@H]1C[C@H]2[C@@H]3CC[C@H](OC(=O)N(CCCl)N=O)[C@@]3(C)CC[C@@H]2[C@@]2(C)CCC(=O)C=C12 [6α-methyltestosterone-17β-N-(2-chloroethyl)-N-nitroso carbamate] | exhibit anti-tumor activity
CC1=C2CC[C@H]3[C@@H]4CC[C@H](OC(=O)N(CCCl)N=O)[C@@]4(C)CC[C@@H]3[C@@]2(C)CCC1=O [4-methyl-testosterone-17β-N-(2-chloroethyl)-N-nitroso carbamate] | exhibit anti-tumor activity

Structure (SMILES) | anti-tumor activity
C[C@@]12C=CC[C@H]1[C@@H]1CCc3cc(OC(=O)N(CCCl)N=O)ccc3[C@H]1CC2 [estra-1,3,5(10),16-tetraen-3-ol,3-N-(2-chloroethyl)-N-nitroso carbamate] | exhibit anti-tumor activity
CCCCC(=O)O[C@H]1CC[C@H]2[C@@H]3CCc4cc(OC(=O)N(CCCl)N=O)ccc4[C@H]3CC[C@]12C [estradiol-17β-valerate-3-N-(2-chloroethyl)-N-nitroso carbamate] | exhibit anti-tumor activity
COc1ccc2c(c1)CC[C@@H]1[C@@H]2CC[C@]2(C)[C@@H](OC(=O)N(C(=O)N(CCCl)N=O)c3ccccc3)CC[C@@H]12 [estradiol-3-methylether-17β-/N^2-phenyl-N^4-(2-chloroethyl)-N^4-nitroso allophanate/] | exhibit anti-tumor activity
C#C[C@]1(OC(C)=O)CC[C@H]2[C@@H]3CCC4=C[C@@H](OC(=O)NC(=O)N(CCCl)N=O)CC[C@@H]4[C@H]3CC[C@@]21C [ethynodiol-17β-acetate-3β-/N^4-(2-chloroethyl)-N^4-nitroso allophanate/] | exhibit anti-tumor activity
C#C[C@]1(OC(=O)N(CCCl)N=O)CC[C@H]2[C@@H]3CCC4=C[C@@H](OP(=O)(O)OCC)CC[C@@H]4[C@H]3CC[C@@]21C [ethynodiol-17β-N-(2-chloroethyl)-N-nitroso carbamate-3β-ethyl hydrogen phosphate] | exhibit anti-tumor activity
C[C@]12CC[C@H]3[C@@H](CC=C4C[C@@H](OC(=O)N(CCCl)N=O)CC[C@@]43C)[C@@H]1CC[C@@H]2OS(=O)(=O)O [androstenediol-3β-/N-(2-chloroethyl)-N-nitroso carbamate/-17β-sodium sulphate] | exhibit anti-tumor activity
CC(C)(C)C(=O)OCC(=O)[C@@]1(O)CC[C@H]2[C@@H]3CCC4=CC(=O)C=C[C@]4(C)[C@H]3[C@@H](OC(=O)N(CCCl)N=O)C[C@@]21C [prednisolone-11β-/N-(2-chloroethyl)-N-nitroso carbamate/-21-pivalate] | exhibit anti-tumor activity
C#C[C@]1(OC(C)=O)CC[C@H]2[C@@H]3CCC4=C[C@@H](OC(=O)N(CCCC)C(=O)N(CCCl)N=O)CC[C@@H]4[C@H]3CC[C@@]21C [ethynodiol-17β-acetate-3β-/N^2-n-butyl-N^4-(2-chloroethyl)-N^4-nitroso allophanate/] | exhibit anti-tumor activity
C[C@]12CC[C@H]3[C@@H](CC=C4C[C@@H](OC(=O)N(CCCl)N=O)CC[C@@]43C)[C@@H]1CC[C@@H]2OC(=O)CCC(=O)O [androstenediol-17β-hemisuccinate-3β-N-(2-chloroethyl)-N-nitroso carbamate] | exhibit anti-tumor activity
CCCCCCOc1ccc(CCC(=O)O[C@H]2CC[C@H]3[C@@H]4CC=C5C[C@@H](OC(=O)N(CCCl)N=O)CC[C@]5(C)[C@H]4CC[C@]23C)cc1 [androstenediol-17β-p-hexoxyphenylpropionate-3β-N-(2 -chloroethyl)-N-nitroso carbamate] | exhibit anti-tumor activity
C#C[C@]1(OC(=O)N(CCCl)N=O)CC[C@H]2[C@@H]3CCC4=CC(=O)CC[C@@H]4[C@H]3CC[C@@]21CC [17α-ethynyl-18-methyl-19-nortestosterone-17β-N-(2-chloroethyl)-N-nitroso carbamate] | exhibit anti-tumor activity
C[C@@H]1CC2=CC(=O)CC[C@]2(C)[C@H]2CC[C@@]3(C)[C@@H](CC[C@]3(C)OC(=O)N(CCCl)N=O)[C@H]12 [7α,17α-dimethyltestosterone-17β-N-(2-chloroethyl)-N-nitroso carbamate] | exhibit anti-tumor activity
C[C@]12CCC(=O)C=C1CC[C@H]1[C@@H]3CC[C@](C)(OC(=O)N(CCCl)N=O)[C@@]3(C)C[C@H](O)[C@@]12F [9α-fluoro-11β-hydroxy-17α-methyltestosterone-17β-N-(2-chloroethyl)-N-nitroso carbamate] | exhibit anti-tumor activity
CC(C)CCC[C@@H](C)[C@H]1CC[C@H]2[C@@H]3CC=C4C[C@@H](OC(=O)N(CCCl)C(=O)N(CCCl)N=O)CC[C@]4(C)[C@H]3CC[C@]12C [cholesterol-3β-/N^2,N^4-bis (2-chloroethyl)-N^4-nitroso allophanate/] | exhibit anti-tumor activity
CCOP(=O)(O)O[C@H]1CC[C@H]2[C@@H]3CCc4cc(OC(=O)N(CCCl)N=O)ccc4[C@H]3CC[C@]12C [estradiol-17β-ethyl hydrogen phosphate-3-N-(2-chloroethyl)-N-nitroso carbamate] | exhibit anti-tumor activity

— patent publication US3963707A, “Novel N-nitroso compounds, compositions containing such compounds, processes for their preparation and methods of treatment therewith, and novel intermediates” (Aktiebolaget Leo, priority 1973, dated 1976)
